In patent publication US20250170097A1, “CATHEPSIN INHIBITORS AND USE THEREOF IN A METHOD FOR DETECTING AND TREATING RESISTANCE TO IMMUNOTHERAPY” (YISSUM RESEARCH DEVELOPMENT COMPANY OF THE HEBREW …, priority 2022, published 2025):

Tests used:
[1] = test system: endogenous cathepsin activity (cathepsin L/B) in lung cancer A549 cells; test: Cathepsin inhibition in intact A549 cells, residual activity labeled with GB123; type: cell-based; conditions: for IC50: 1 hour at 37° C., FIG. 9B
Experimental: The ability of MGB to penetrate cells and inhibit endogenous cathepsin activity was tested in lung cancer A549 cells. This model (lung cells) was chosen since corona virus is known to infect the respiratory system. Intact cells were treated with inhibitors and the residual activity was determined by GB123. Inhibition was detected on SDS-PAGE Potent inhibitors reduce the residual activity and as a result, a reduction in fluorescently labeled cathepsins is seen (FIG. 9A). The cathepsin activity was quantification and IC50 curves were plotted.

[2] = test system: A549, HepG2, U87, and Hacat cells; test: Cell viability assay (methylene blue, 72 hours); type: cell-based
Experimental: The cells were incubated with compounds at indicated concentrations for 72 hours at 37° C. and then fixed by 2.5% glutaraldehyde for 1 hour at room temperature and stained with methylene blue. Growth was compared to vehicle-treated cells designated as 100%.

[3] = test system: B16-F10 tumors; test: Resistant B16-F10 melanoma tumor-bearing mice; type: in vivo; conditions: combination of GB111-NH2 (30 mg/kg) and anti PD-1 (100 μg/dose), every 4 days from day 5
Experimental: A sensitive IT treatment model, D4M tumors and, a more resistant model, IT B16-F10 tumor Cells were injected subcutaneously (SC) to the back of the mice and their growth was measured continuously by caliper. Anti PD-1 was administered intra peritoneally (IP) twice, a few days after the tumor could be palpated, and on indicated days and doses as described in the methods, changes in tumor volume were measured during the experiment (FIG. 4A).
To determine the cathepsin activity in both models, one day prior to sacrifice, GB123 (a fluorescent cathepsin activity-based probe) was administered IV, and tumors were harvested for further biochemical examination. Tumor tissue was subjected to fluorescence-activated cell sorting (FACS) analysis to determine the percentage of tumor associated macrophages (TAMs) that express high cathepsin activity.
The effect of the inhibition of cathepsin activity on the resistance to IT was examined using the resistant B16-F10 tumor-bearing mice with IT (anti-PD-1), GB111-NH2 (cathepsin inhibitor), or their combinations. The B16-F10 tumor-bearing mice were treated every 4 days, starting on day 5 after cell inoculation with anti PD-1 (100 μg/dose), GB111-NH2 (30 mg/kg) or their combinations; IT was given a day before GB111-NH2 (a group of GB111-NH2 first and IT a day later was included). […] In addition, survival plots were generated (FIG. 6B).

[4] = test system: cathepsins B, L and S; test: Cathepsin activity in lysates of patients' cells and hematological malignancy cell lines, GB123 labeling; type: cell-based, human
Experimental: Cell lysates from hematological malignancies patients were pretreated with vehicle, or a cathepsin inhibitor GB111-NH2 for 0.5 hour, then labeled by addition of 1 μmol/L GB123 probe for 1 hour. Equal amounts of protein were separated and visualized by scanning of the gel with a Typhoon flatbed laser scanner. Each lane was taken from a different patient. MZL-Marginal zone lymphoma, CLL-chronic lymphocytic leukemia, DLBCL-Diffuse large B-cell lymphoma.
Crude detergent lysates from cells that were pretreated with either cathepsin inhibitor GB111-NH2 or with control DMSO; vehicle for 20 minutes and then labeled by addition of 1 μmol/L GB123 probe for 1 hour. Equal amounts of protein (see Coomassie) were separated and visualized by scanning of the gel with a Typhoon flatbed laser scanner.
To verify activity dependent labeling, indicated samples were pre-incubated with GB111-NH2, a potent cathepsin inhibitor, prior to GB123 labeling. After incubation with GB123, a fluorescent scan of SDS-PAGE was done. Cathepsin activity was detected in lysates of cells from human Chronic lymphocytic leukemia (CLL) and Diffuse large B-cell lymphoma (DLBCL) patients as well as healthy population (FIG. 13).

[5] = test system: OCI-Ly19 DLBCL cells; test: Lymphoma cell death assay (caspase-3 activation, annexin V staining); type: cell-based
Experimental: OCI-Ly19 DLBCL cells were treated with GB111-NH2 for 1 hour and the cells were evaluated for caspase-3 activation and annexin V staining as indications for apoptosis.
Caspase-3 activation was assessed through the evaluation of caspase-3 enzyme activity (100 ng of protein) with the substrate Ac-DEVD-pNA (N-acetyl-Asp-Glu-Val-Asp-p-nitroaniline) in a colorimetric assay 24 hours post treatment.

[6] = test system: blood cells isolated from peripheral blood and bone marrow of CLL patients; test: Annexin V staining and cathepsin S activity in blood cells of CLL patients; type: cell-based, human
Experimental: FIGS. 14A-14D are bar graphs and images presenting the inhibition of cathepsins induces apoptosis in OCI-Ly19 cells. (14A) Caspase-3 activation; (14B) FACS analysis of stained cells with anti-Annexin V; (14C) Mononuclear cells from CLL patients were isolated by FICOL, treated with 5 uM GB111-NH2 for 1 hour and stained with anti-Annexin V; and (14D) labeled crude detergent lysates.
The ability of GB111-NH2 to promote lymphoma cell death was examined. […] Cathepsin S activity in these cells was initially high and was reduced to 40% (+10%).

[7] = test system: NF-κB reporter in OCI-Ly19 cells; test: NF-κB signaling assay (luciferase reporter); type: cell-based; conditions: 5 μM, 0.5 μg LPS, 24 h induction; potent as SC-514
Experimental: Cells were transfected by electroporation with NF-κB reporter plasmid. After selection, the cells were harvested, and the luciferase activities were measured and normalized. 5 μM GB111-NH2 inhibited activity of NF-κB reporter in OCI-Ly 19 cells induced by 0.5 μg LPS (24 h induction). 10 μM SC-514, a specific suppressor of NF-κB activity, was used as positive control.

[8] = test system: CD74 in OCI-Ly3 and OCI-Ly19; test: CD74 expression by Western blot and FACS; type: cell-based
Excerpt: The CD74 expression was examined by Western blot (WB) and FACS in OCI-Ly3 and OCI-Ly19 treated with GB111-NH2, LPS or LPS pretreated with GB111-NH2.

[9] = biological target: Recombinant cathepsin B (rCatB) (Homo sapiens, UniProt P07858); test: Competitive inhibition of recombinant cathepsin B, residual activity labeled with GB123, SDS PAGE; type: biochemical; conditions: fluorescent SDS-PAGE, FIG. 8C
Experimental: (§1) Recombinant cathepsin B and L (rCatB and rCatL, respectively) were incubated for 45 minutes at 37° C. with 1 μl of increasing concentrations of cathepsin inhibitors (GB111-NH2 or MGB, respectively), residual cathepsin activity was labeled by addition of 1 μM of GB123 fluorescent activity-based probe for 45 minutes at 37° C., sample buffer was added for 2 min and the sample was boiled at 100° C. for 2 minutes. Equal amount of each sample was separated by a 12.5% SDS PAGE, this experiment was repeated 3 times. The gel was scanned for fluorescence by a Typhoon scanner. The bands were quantified by ImageJ software and then IC50 curves were generated from triplicate experiment by Prism-GraphPad software.

[10] = biological target: Recombinant cathepsin L (rCatL) (Homo sapiens, UniProt P07711); test: Competitive inhibition of recombinant cathepsin L, residual activity labeled with GB123, SDS PAGE; type: biochemical; conditions: fluorescent SDS-PAGE, FIG. 8C
Recombinant cathepsin L (rCatL), sequence (P07711 114-333, species assumed): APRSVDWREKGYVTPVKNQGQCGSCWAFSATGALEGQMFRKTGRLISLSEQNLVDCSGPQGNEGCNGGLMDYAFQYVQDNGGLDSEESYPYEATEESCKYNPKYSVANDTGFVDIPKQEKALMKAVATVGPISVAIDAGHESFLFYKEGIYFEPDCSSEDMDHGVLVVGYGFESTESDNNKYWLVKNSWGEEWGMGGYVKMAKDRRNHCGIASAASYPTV
Experimental: as §1

[11] = test system: endogenous cathepsin activity; test: Endogenous inhibition of cathepsin activity, ACE2-ab-MGB compared to MGB (FIG. 10); type: cell-based; conditions: FIG. 10A-10B
Experimental: 2.5*10^5 cells per well (A549, U87 or HepG2), were seeded in 6 well plates one day before incubation with indicated concentrations of inhibitors (GB111-NH2 or MGB, respectively) for 1 hour at 37° C. Residual cathepsin activity was labeled by the addition of 2 μM of GB123 for 2 hours at 37° C. Sample buffer was added and samples were boiled at 100° C. for 10 min. Equal protein amounts of each sample were resolved by a 12.5% SDS PAGE. a) Gels were scanned for fluorescence by a Typhoon scanner. b) The gel bands were quantified using ImageJ software and IC50 curves were generated from triplicate experiments using Prism-GraphPad software.

Cc1cccc(C)c1C(=O)OCC(=O)[C@H](CCCCN)NC(=O)[C@H](Cc1ccccc1)NC(=O)OCc1ccccc1 [GB111-NH2]
potency relative to MGB [1]: over 200 fold | IC50 [1]: 6 nM | cell viability ([2]; even at low concentrations as 1 μM): reduced cell viability significantly | Tumor volume [3]: significantly smaller tumors | cathepsin activity in OCI-Ly19 cells ([4]; NF-κB reporter cells treated with LPS): blocked cathepsin activity | cathepsins activity ([4]; patients' cells and lymphoma cell lines, pretreatment before GB123 labeling): abolished cathepsins activity | increase in caspase-3 activity ([5]; OCI-Ly19, 24 hours post treatment): 4.5 fold | increase in Annexin V staining ([5]; OCI-Ly19, treated for 1 hour): 2.5 fold | Annexin V staining ([6]; 5 uM for 1 hour, p value 0.016): increased Annexin V staining | Cathepsin S activity, reduced to ([6]; CLL patients' cells): 40% | LPS-induced NF-κB transcriptional activity [7]: suppressed LPS-induced NF-κB transcriptional activity | surface expression of CD74 (FACS) [8]: reduces the surface expression of CD74

Cc1cccc(C)c1C(=O)OCC(=O)[C@H](CCCCN)NC(=O)[C@H](Cc1ccccc1)NC(=O)[C@H](Cc1ccccc1)NC(=O)CCCCCN1C(=O)C=CC1=O [MGB]
inhibition of rCatB [9]: inhibits | inhibition of rCatL [10]: inhibits | IC50 [1]: 1900 nM | IC50 [11]: 1700 ± 600 nM | cell viability ([2]; even at a concentration of 5 μM): safe to cells
